Experiment [1] deals with aNPCs. Briefly: Neuronal differentiation of aNPCs with CD4+ T cells, T cell-conditioned medium or cytokines. As to conditions: 5 days in culture with cytokine, concentrations as low as 1 ng/ml. Type of experiment: cell-based, mouse. Here is the method:
(xvii) Co-culturing of neural progenitor cells and T cells. CD4+ T cells were purified from lymph nodes of 8-week-old C57B16/J mice as previously described (Kipnis et al., 2004). T cells were activated in RPMI medium supplemented with L-glutamine (2 mM), 2-mercaptoethanol (5×10^−5 M), sodium pyruvate (1 mM), penicillin (100 IU/ml), streptomycin (100 μg/ml), nonessential amino acids (1 ml/100 ml), and autologous serum 2% (v/v) in the presence of mouse recombinant IL-2 (mrIL-2; 5 ng/ml) and soluble anti-CD28 and anti-CD3. antibodies (1 ng/ml). T cells were co-cultured (5×10^4 cells/well) with aNPCs (5×10^4 cells/well) for 5 d on cover slips coated with Matrigel (BD Biosciences) in 24-well plates. The cultures were then fixed with 2.5% paraformaldehyde in PBS for 30 min at room temperature and stained for neuronal markers.
We therefore sought to determine whether direct interaction between aNPCs and T cells would also result in an altered pattern of aNPC differentiation. To address this question, we activated CD4+ T cells in vitro by a cognate protocol (with anti-CD3 antibodies, anti-CD28 antibodies, and IL-2) for 24 h and then allowed their activation to continue in co-cultures with aNPCs in a transwell culture system. […] After 5 days in culture the aNPCs in the lower chamber were fixed and analyzed for the appearance of newly formed neurons. […]

The test system of experiment [2] is neural progenitor cells (NPCs). Briefly: Neurogenesis from NPCs co-cultured with microglia pre-activated by aggregated Aβ and cytokines. The class given is cell-based, mouse. As to conditions: 10 days; Aβ 5 μM 48 h, cytokines 10 ng/ml. The procedure: (xx) Reagents. Recombinant mouse IFN-γ and IL-4 (both containing endotoxin at a concentration below 0.1 ng/μg cytokine) were obtained from R&D Systems (Minneapolis, Minn.). β-amyloid peptides [amyloid protein fragment 1-40 and 1-42 (Aβ1-40/1-42)] were purchased from Sigma-Aldrich, St. Louis, Mo. The Aβ peptides were dissolved in endotoxin-free water, and Aβ aggregates were formed by incubation of Aβ, as described (Ishii et al., 2000). (xxv) Neural progenitor cell culture. Coronal sections (2 mm thick) of tissue containing the subventricular zone of the lateral ventricle were obtained from the brains of adult C57B1/6J mice. […] After centrifugation at 110×g for 15 min at room temperature, the tissue was mechanically dissociated by pipette trituration. Cells obtained from single-cell suspensions were plated (3500 cells/cm^2) in 75-cm^2 Falcon tissue-culture flasks (BD Biosciences, San Diego, Calif.), in NPC-culturing medium [Dulbecco's modified Eagles's medium (DMEM)/F12 medium (Gibco/Invitrogen, Carlsbad, Calif.) containing 2 mM L-glutamine, 0.6% glucose, 9.6 μg/ml putrescine, 6.3 ng/ml progesterone, 5.2 ng/ml sodium selenite, 0.02 mg/ml insulin, 0.1 mg/ml transferrin, 2 μg/ml heparin (all from Sigma-Aldrich, Rehovot, Israel), fibroblast growth factor-2 (human recombinant, 20 ng/ml), and epidermal growth factor (human recombinant, 20 ng/ml; both from Peprotech, Rocky Hill, N.J.)]. Spheres were passaged every 4-6 days and replated as single cells. Green fluorescent protein (GFP)-expressing NPCs were obtained as previously described (Pluchino et al., 2003). (xxvi) Primary microglial culture. Brains from neonatal (P0-P1) C57B1/6J mice were stripped of their meninges and minced with scissors under a dissecting microscope (Zeiss, Stemi DV4, Germany) in Leibovitz-15 medium (Biological Industries, Kibbutz Beit Ha-Emek, Israel). […] The cell suspension was washed in culture medium for glial cells [DMEM supplemented with 10% fetal calf serum (FCS; Sigma-Aldrich, Rehovot), L-glutamine (1 mM), sodium pyruvate (1 mM), penicillin (100 U/ml), and streptomycin ([…])] and cultured at 37° C./5% CO2 in 75-cm^2 Falcon tissue-culture flasks (BD Biosciences) coated with poly-D-lysine (PDL) (10 mg/ml; Sigma-Aldrich, Rehovot) in borate buffer (2.37 g borax and 1.55 g boric acid dissolved in 500 ml sterile water, pH 8.4) for 1 h, then rinsed thoroughly with sterile, glass-distilled water. Half of the medium was changed after 6 h in culture and every 2nd day thereafter, starting on day 2, for a total culture time of 10-14 days. […]

The source of these data is patent US20090191173A1, “Induction Of Neurogenesis And Stem Cell Therapy In Combination With Copolymer 1” (priority 2004, published 2009).

IL-4: recombinant interleukin-4: the “β-III-tubulin expression in aNPCs” value in experiment [1] is recorded as “no change in β-III-tubulin expression”. For the same substance, the “neurogenesis (GFP+/βIIIT+ cells) from NPCs co-cultured with treated microglia” value in experiment [2] is “partially counteracted the adverse effect of the aggregated Aβ”.
